Measured values from paper PMC9796130, “The First Structure of Human MTHFD2L and Its Implications for the Development of Isoform‐Selective Inhibitors” (Chemmedchem, 2022).

Molecular target: T1, MTHFD2L (Homo sapiens, UniProt Q9H903)
T1 construct: amino acids 50–347, His-tagged
T1 sequence (Q9H903 50-347): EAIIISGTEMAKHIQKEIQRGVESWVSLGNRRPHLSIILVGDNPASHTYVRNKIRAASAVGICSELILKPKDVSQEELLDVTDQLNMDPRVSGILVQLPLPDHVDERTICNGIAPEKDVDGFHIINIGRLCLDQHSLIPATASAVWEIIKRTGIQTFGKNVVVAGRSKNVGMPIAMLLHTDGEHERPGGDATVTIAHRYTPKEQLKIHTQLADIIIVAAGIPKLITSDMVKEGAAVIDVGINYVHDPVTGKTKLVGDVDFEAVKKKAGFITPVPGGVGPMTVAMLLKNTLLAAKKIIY
Test: X-ray co-crystal structure ([…] Å); IC50 on purified enzyme by NAD(P)H-Glo luminescence assay
Type: biochemical

`Nc1nc(N)c(NC(=O)Nc2ccc(C(=O)NC(CCC(=O)O)C(=O)O)cc2)c(O)n1` (stereo not shown) [TH7299] showed an IC50 of 174 nM.
